The results in this text go back to publication PMC12149313 (Cell Death & Disease, 2025).

In the experiment the test system is T1, β-tubulin.
T1 construct: gene TUBB
Briefly: ITDR-CETSA of β-tubulin at […] °C in CFPAC-1 COMT-/- cells. In kind it is cell-based.

With `CNc1nc2ccccc2n2c(-c3ccc(OC)c(O)c3)cnc12` [EAPB04303], the EC50 (usually the concentration giving half of the maximal effect) amounted to 3000 ± 2000 nM.
